Measured values: publication PMC11859928, “Design, Synthesis, and Antiproliferative Activity of Novel Indole/1,2,4-Triazole Hybrids as Tubulin Polymerization Inhibitors” (Pharmaceuticals, 2025)
Like-named read-outs stand apart in the source and are kept apart here.

Assays:
CCRF-CEM = experiment: NCI five-dose assay; format: cell-based, human; conditions: Homo sapiens, Leukemia
K-562 = experiment: NCI five-dose assay; format: cell-based, human; conditions: Homo sapiens, K562, K-562, Leukemia
MOLT-4 = experiment: NCI five-dose assay; format: cell-based, human; conditions: MOLT-4, Leukemia
RPMI-8226 = experiment: NCI five-dose assay; format: cell-based, human; conditions: Homo sapiens, RPMI-8226, Leukemia
A549/ATCC = experiment: NCI five-dose assay; format: cell-based, human; conditions: Non-small cell lung cancer
EKVX = experiment: NCI five-dose assay; format: cell-based, human; conditions: Non-small cell lung cancer
HOP-62 = experiment: NCI five-dose assay; format: cell-based, human; conditions: HOP-62, Non-small cell lung cancer
HCT-116 = experiment: NCI five-dose assay; format: cell-based, human; conditions: HCT-116, Colon cancer
HT29 = experiment: NCI five-dose assay; format: cell-based, human; conditions: HT29, Colon cancer
SW-620 = experiment: NCI five-dose assay; format: cell-based, human; conditions: SW-620, Colon cancer
SF-268 = experiment: NCI five-dose assay; format: cell-based, human; conditions: Homo sapiens, SF-268, CNS cancer
SNB-19 = experiment: NCI five-dose assay; format: cell-based, human; conditions: SNB-19, CNS cancer
SNB-75 = experiment: NCI five-dose assay; format: cell-based, human; conditions: SNB-75, CNS cancer
MALME-3M = experiment: NCI five-dose assay; format: cell-based, human; conditions: Melanoma
MDA-MB-435 = experiment: NCI five-dose assay; format: cell-based, human; conditions: MDA-MB-435, Melanoma
SK-MEL-28 = experiment: NCI five-dose assay; format: cell-based, human; conditions: SK-MEL-28, Melanoma
UACC-62 = experiment: NCI five-dose assay; format: cell-based, human; conditions: UACC-62, Melanoma
IGROV1 = experiment: NCI five-dose assay; format: cell-based, human; conditions: IGROV1, Ovarian cancer
OVCAR-4 = experiment: NCI five-dose assay; format: cell-based, human; conditions: OVCAR-4, Ovarian cancer
A498 = experiment: NCI five-dose assay; format: cell-based, human; conditions: A498, Renal cancer
RXF393 = experiment: NCI five-dose assay; format: cell-based, human; conditions: RXF393, Renal cancer
SN12C = experiment: NCI five-dose assay; format: cell-based, human; conditions: Renal cancer
TK-10 = experiment: NCI five-dose assay; format: cell-based, human; conditions: TK-10, Renal cancer
UO-31 = experiment: NCI five-dose assay; format: cell-based, human; conditions: UO-31, Renal cancer
DU-145 = experiment: NCI five-dose assay; format: cell-based, human; conditions: DU-145, Prostate cancer
Leukemia subpanel = experiment: NCI five-dose assay, subpanel mean; format: cell-based, human
[1] = test system: panel of 60 human tumor cell lines; experiment: NCI five-dose assay, full panel; format: cell-based
[2] = 48 h, read-out: LC50 (the source's name)
[3] = read-out: GI50 Conc. per Cell Lines
[4] = Homo sapiens, 48 h, read-out: LC50 (the source's name)
[5] = Homo sapiens, read-out: GI50 Conc. per Cell Lines

In the case of O/N=C(\CSc1nnc(-c2c[nH]c3ccccc23)n1-c1ccccc1)c1ccc(Br)cc1 [Compound 7i, (Z)-2-((5-(1H-Indol-3-yl)-4-phenyl-4H-1,2,4-triazol-3-yl)thio)-1-(4-bromophenyl) Ethanone Oxime], the CC50 (CCRF-CEM; [2]) is reported as greater than 100 µM, the GI50 (CCRF-CEM; [3]) is reported as 2.78 µM and the CC50 (K-562; [2]) is reported as greater than 100 µM. It also gave a GI50 (K-562; [3]) of 2.22 µM, a CC50 (MOLT-4; [4]) greater than 100 µM and a GI50 (MOLT-4; [5]) of 2.09 µM. The “TGI Conc. per Cell Lines” value (MOLT-4) was 4.80 µM, the CC50 (RPMI-8226; [2]) was greater than 100 µM and the GI50 (RPMI-8226; [3]) was 2.45 µM. For the same molecule, the CC50 (A549/ATCC; [4]) was 31 µM, the GI50 (A549/ATCC; [5]) was 2.49 µM and the “TGI Conc. per Cell Lines” value (A549/ATCC) was 6.66 µM. The CC50 (EKVX; [4]) was 34.2 µM, the GI50 (EKVX; [5]) was 2.6 µM and the “TGI Conc. per Cell Lines” value (EKVX) was 9.09 µM. For the same molecule, the “TGI Conc. per Cell Lines” value (HOP-62) was 3.98 µM, the GI50 (HOP-62; [5]) was 1.86 µM and the “TGI Conc. per Cell Lines” value (HCT-116) was 17.40 µM. For the same molecule, the CC50 (HCT-116; [4]) was greater than 100 µM, the GI50 (HCT-116; [5]) was 3.45 µM and the “TGI Conc. per Cell Lines” value (HT29) was 5.03 µM. The CC50 (HT29; Homo sapiens, HT-29, 48 h, read-out: LC50 (the source's name)) was 17.8 µM, the GI50 (HT29; Homo sapiens, HT-29, read-out: GI50 Conc. per Cell Lines) was 2.23 µM and the CC50 (SW-620; [4]) was 62.1 µM. The GI50 (SW-620; [5]) was 3.28 µM, the “TGI Conc. per Cell Lines” value (SW-620) was 12.10 µM and the CC50 (SF-268; [2]) was greater than 100 µM. The GI50 (SF-268; [3]) was 2.37 µM, the CC50 (SNB-19; [4]) was 84.5 µM and the GI50 (SNB-19; [5]) was 4.32 µM. For the same molecule, the “TGI Conc. per Cell Lines” value (SNB-19) was 19.80 µM, the CC50 (SNB-75; [4]) was 28.1 µM and the GI50 (SNB-75; [5]) was 1.87 µM. For the same molecule, the “TGI Conc. per Cell Lines” value (SNB-75) was 4.95 µM, the CC50 (MALME-3M; [4]) was 87 µM and the GI50 (MALME-3M; [5]) was 3.22 µM. The “TGI Conc. per Cell Lines” value (MALME-3M) was 14.30 µM, the CC50 (MDA-MB-435; [4]) was 7.57 µM and the GI50 (MDA-MB-435; [5]) was 2.01 µM. For the same molecule, the “TGI Conc. per Cell Lines” value (MDA-MB-435) was 3.89 µM, the CC50 (SK-MEL-28; [4]) was 44.8 µM and the GI50 (SK-MEL-28; [5]) was 3.4 µM. The “TGI Conc. per Cell Lines” value (SK-MEL-28) was 12.50 µM, the CC50 (UACC-62; [4]) was 7.93 µM and the GI50 (UACC-62; [5]) was 1.77 µM. The “TGI Conc. per Cell Lines” value (UACC-62) was 3.74 µM, the CC50 (IGROV1; Homo sapiens, IGROV-1, 48 h, read-out: LC50 (the source's name)) was 38.3 µM and the GI50 (IGROV1; Homo sapiens, IGROV-1, read-out: GI50 Conc. per Cell Lines) was 3.41 µM. For the same molecule, the “TGI Conc. per Cell Lines” value (IGROV1) was 11.70 µM, the GI50 (OVCAR-4; [5]) was 2.14 µM and the “TGI Conc. per Cell Lines” value (OVCAR-4) was 4.57 µM. The “TGI Conc. per Cell Lines” value (A498) was 51.70 µM, the LC50 (A498; Homo sapiens, 48 h) was greater than 100 µM and the GI50 (A498; [5]) was 1.63 µM. For the same molecule, the LC50 (concentration killing 50% of cells) (RXF393; Homo sapiens, RXF 393, 48 h) was 7.65 µM, the GI50 (RXF393; Homo sapiens, RXF 393, read-out: GI50 Conc. per Cell Lines) was 1.75 µM and the “TGI Conc. per Cell Lines” value (RXF393) was 3.65 µM. For the same molecule, the CC50 (SN12C; [4]) was 30.1 µM, the GI50 (SN12C; [5]) was 2.52 µM and the “TGI Conc. per Cell Lines” value (SN12C) was 7.97 µM. For the same molecule, the CC50 (TK-10; [4]) was 30.4 µM, the GI50 (TK-10; [5]) was 2.8 µM and the “TGI Conc. per Cell Lines” value (TK-10) was 7.63 µM. The CC50 (UO-31; [4]) was 34.3 µM, the GI50 (UO-31; [5]) was 2.29 µM and the “TGI Conc. per Cell Lines” value (UO-31) was 7.81 µM. The “TGI Conc. per Cell Lines” value (DU-145) was 4.08 µM, the GI50 (DU-145; [5]) was 2.05 µM and the GI50 (Leukemia subpanel; Homo sapiens, average sensitivity of all cell lines of the Leukemia subpanel, read-out: GI50 Subpanel MID b) was 2.29 µM. For the same molecule, the “GI50 Selectivity Ratio (MID a/MID b)” value (Leukemia subpanel; Leukemia subpanel) was 1.22, the GI50 ([1]; average sensitivity of all cell lines, read-out: GI50 MID a) was 2.8 µM and the GI50 ([1]; most of the tested cell lines across nine subpanels, read-out: GI50 values, range across nine subpanels) was 2.1 to 3.23 µM.
